Patent publication US20110008471A1, “SYNERGISTIC ANTIPARASITIC COMPOSITIONS AND SCREENING METHODS” (TyraTech, Inc., priority 2007, published 2011)

Assays:
Tyramine receptor (TyrR) [1] = target: T1, Tyramine receptor (TyrR) (Drosophila melanogaster, UniProt P22270); assay: Tyramine receptor binding affinity in cells expressing TyrR
T1 construct: expressed in transfected cells; host or cells: model cells in culture
T1 sequence (P22270 27-601): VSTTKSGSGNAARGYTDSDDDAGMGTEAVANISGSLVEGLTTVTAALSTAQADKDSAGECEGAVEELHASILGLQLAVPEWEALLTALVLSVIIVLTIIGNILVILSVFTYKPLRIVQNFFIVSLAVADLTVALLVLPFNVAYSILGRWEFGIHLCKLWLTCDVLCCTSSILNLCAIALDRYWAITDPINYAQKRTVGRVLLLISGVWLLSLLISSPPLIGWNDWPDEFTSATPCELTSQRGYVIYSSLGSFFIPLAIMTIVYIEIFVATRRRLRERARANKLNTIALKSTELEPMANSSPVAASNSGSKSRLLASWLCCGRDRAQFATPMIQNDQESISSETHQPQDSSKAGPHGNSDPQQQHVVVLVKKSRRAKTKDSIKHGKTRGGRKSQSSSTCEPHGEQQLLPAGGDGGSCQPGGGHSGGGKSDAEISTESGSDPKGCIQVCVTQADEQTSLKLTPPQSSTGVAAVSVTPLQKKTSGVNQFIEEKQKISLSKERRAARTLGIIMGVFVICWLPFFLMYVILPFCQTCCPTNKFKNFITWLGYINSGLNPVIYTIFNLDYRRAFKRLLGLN
Procedure: In some embodiments, a method of selecting a composition for use in treating a parasitic infection includes the following. A cell expressing a tyramine receptor is provided and is contacted with test compounds. The receptor binding affinity of the compounds is measured. At least one parameter selected from the following parameters is measured: intracellular cAMP level, and intracellular Ca^2+ level. A first compound for the composition is identified, which is capable of altering at least one of the parameters, and which has a high receptor binding affinity for the tyramine receptor; and a second compound for the composition is identified, which is capable of altering at least one of the parameters, and which has a low receptor binding affinity for the tyramine receptor. A composition is selected that includes the first and second compounds.
As used herein, the term “receptor binding affinity” refers to an interaction between a composition or component, e.g., compound, and a receptor binding site. The interaction between a composition or component, and the receptor binding site, can be identified as specific or non-specific. In some embodiments, the specificity of an interaction between a composition or component, and a TyrR binding site, can be determined in the following manner. A wild type fly (Drosophila melanogaster) and a mutant fly are provided, where the mutant fly lacks a TyrR. The wild type and mutant flies are exposed to a composition or component of interest. […] If the exposure negatively affects the wild type fly and the mutant fly, then the treatment with the composition or component of interest can be said to be non-specific for the TyrR.
A “high receptor binding affinity” can be a specific interaction between a composition or component, and the receptor binding site.
A “low receptor binding affinity” can be a non-specific interaction between a composition or component, and the receptor binding site. […] In some embodiments, a low receptor binding affinity is found when the effective concentration at which tyramine binding is inhibited by 50% (EC50) is greater than about 500 μM, 625 μM, 750 μM, 875 μM, 1000 μM, 1125 μM, or 1250 μM.
A receptor gene encoding the Tyramine receptor (TyrR) has been isolated from the American cockroach, fruit fly, mosquito, and other organisms. The present subject matter provides methods of utilizing the TyrR protein expressed in cells to screen for compounds useful for treating parasitic infections.
(§1) In the present Example, the genes encoding TyrR were incorporated into model cells in culture that mimic receptors in insects. The screening process uses the cultured cells in combination with [Ca^2+]i and [cAMP]i measuring assays to quantitatively determine effectiveness of test compound to treat parasitic infections. The screening process allows for identification of compounds that produce highly efficacious anti-parasitic compositions.
(§2) The assay steps are as follows. A cell expressing a tyramine receptor is contacted with a test compound and the receptor binding affinity of the test compound is measured. Cells which can be used include, for example, HEK293 cells, COS cells, Drosophila Schneider or S2 cells, SF9, SF21, T.ni cells, or the like. cAMP and/or Ca^2+ levels within the cell are also monitored and any changes from contacting the test compound with the cell are noted for each compound tested. […] A composition for use in treating a parasitic formulation can then be selected that includes a plurality of the identified compounds. In particular, the composition can comprise at least one compound identified as having a high receptor binding affinity for the tyramine receptor as well as an ability to effect change in cAMP and/or Ca^2+ levels within the cell and at least one additional compound identified as having a low receptor binding affinity for the tyramine receptor as well as an ability to effect change in cAMP and/or Ca^2+ levels within the cell.

Tyramine receptor (TyrR) [2] = target: T1, Tyramine receptor (TyrR); assay: Intracellular Ca2+ level in cells expressing TyrR; type: cell-based
Tyramine receptor (TyrR) [3] = target: T1, Tyramine receptor (TyrR); assay: Intracellular cAMP level in cells expressing TyrR; type: cell-based
Description: as §1, §2

H. nana = assay: Anti-parasitic effect against H. nana in vivo in infected Swiss albino mice (egg count, cure rate); set-up: species or system Hymenolepsis nana; settings: for Egg Count (X ± SD), Pre Treatment (Base Line Data): infected mice, before 400 mg/kg oral daily for 5 days;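 as to all read-outs here: fecal egg counts per mouse in groups of 15, controls got soybean oil vehicle alone, cure judged 3 days after final dose by egg reduction and no adult intestinal worms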
[4] = 400 mg/kg oral daily for 5 days
[5] = 3 Days after last dose, 400 mg/kg oral daily for 5 days
[6] = 100 mg/kg oral daily for 5 days
[7] = Tested dose 100 mg/kg b.w. orally daily for 5 successive days

Row | SMILES | Tyramine Receptor Binding Affinity (High or Low) (Tyramine receptor (TyrR) [1]) | Affects Intracellular Ca^2+ (Yes or No) (Tyramine receptor (TyrR) [2]) | Affects Intracellular cAMP (Yes or No) (Tyramine receptor (TyrR) [3]) | further results
1 | C=CCc1ccc(O)c(OC)c1 [Eugenol] | Low | Yes | No | –
2 | Cc1ccc(C(C)C)cc1O [Rx4, carvacrol] | – | – | – | Egg Count (X ± SD), During Treatment 1st Day (H. nana; [4]): 5 ± 0.6; Egg Count (X ± SD), During Treatment 2nd Day (H. nana; [4]): 2.2 ± 3.4; Egg Count (X ± SD), During Treatment 3rd Day (H. nana; [4]): 1 ± 1.9; Egg Count (X ± SD), During Treatment 4th Day (H. nana; [4]): 0.9 ± 1.2; Egg Count (X ± SD), During Treatment 5th Day (H. nana; [4]): 2 ± 2; Egg Count (X ± SD), Post treatment 2 Days after last dose (H. nana; [4]): 1.3 ± 1.1; Cure rate (%) (H. nana; [5]): 28.6%; Positiveity rate (%) (H. nana; [5]): 71.4%; Egg Count (X ± SD), Pre Treatment (Base Line Data) (H. nana): 3 ± 1
3 | CC(C)=CCC/C(C)=C/CO [Rx5, geraniol] | – | – | – | Egg Count (X ± SD), During Treatment 1st Day (H. nana; [4]): 14 ± 13.9; Egg Count (X ± SD), During Treatment 2nd Day (H. nana; [4]): 1.4 ± 2.1; Egg Count (X ± SD), During Treatment 3rd Day (H. nana; [4]): 4.1 ± 9.6; Egg Count (X ± SD), During Treatment 4th Day (H. nana; [4]): 2.6 ± 7.4; Egg Count (X ± SD), During Treatment 5th Day (H. nana; [4]): 2.3 ± 3.6; Egg Count (X ± SD), Post treatment 2 Days after last dose (H. nana; [4]): 0.5 ± 0.9; Cure rate (%) (H. nana; [5]): 66.6%; Positiveity rate (%) (H. nana; [5]): 33.4%; cure rate (H. nana; H. nana infected mice, 400 mg/kg body weight orally daily for 5 successive days, 3rd day after last dose): 66.6%; Egg Count (X ± SD), Pre Treatment (Base Line Data) (H. nana): 3 ± 1; Worms absent or dead in mice (H. nana; treated for 5 consecutive days, 400 mg/kg, post treatment dissection): 67%
4 | CC12CCC(CC1)C(C)(C)O2 [Rx6, cineol] | – | – | – | Egg Count (X ± SD), During Treatment 1st Day (H. nana; [4]): 5 ± 9.5; Egg Count (X ± SD), During Treatment 2nd Day (H. nana; [4]): 3.8 ± 14.3; Egg Count (X ± SD), During Treatment 3rd Day (H. nana; [4]): 1 ± 1.2; Egg Count (X ± SD), During Treatment 4th Day (H. nana; [4]): 1.8 ± 1.7; Egg Count (X ± SD), During Treatment 5th Day (H. nana; [4]): 1.6 ± 1.5; Egg Count (X ± SD), Post treatment 2 Days after last dose (H. nana; [4]): 2.5 ± 3.5; Cure rate (%) (H. nana; [5]): 54.5%; Positiveity rate (%) (H. nana; [5]): 45.5%; Egg Count (X ± SD), Pre Treatment (Base Line Data) (H. nana): 3.1 ± 1.2
5 | Cc1ccc(C(C)C)cc1 [Rx10, p-cymene] | Low | Yes | Yes | Cure rate (%) (H. nana; [6]): 13.3%; Cure rate (%) (H. nana; [7]): 13.3%; tyramine receptor binding affinity (Tyramine receptor (TyrR) [1]): low (a low receptor binding affinity is found when the equilibrium dissociation constant (Kd) is greater than about 100 nM)
6 | Cc1ccc(C(C)C)c(O)c1 [Rx11, thymol] | High | Yes | No | Cure rate (%) (H. nana; [6]): 33.3%; Cure rate (%) (H. nana; [7]): 33.3%
7 | C/C=C/c1ccc(OC)cc1 [anethole] | Low | Yes | Yes | –
8 | OCc1ccccc1 [benzyl alcohol] | Low | No | Yes | –
9 | CC12CCC(CC1)C(C)(C)O2 [cineol] | Low | Yes | Yes | –
10 | OCC=Cc1ccccc1 [cinnamyl alcohol] | Low | Yes | No | –
11 | C=C(C)[C@H]1CC=C(C)CC1 [d-limonene] | – | Yes | – | –
12 | CC(C)=CCC/C(C)=C/CO [geraniol] | High | Yes | Yes | –
13 | C=CC(C)(O)CCC=C(C)C (stereo not shown) [linalool] | High | Yes | No | Cure rate (%) (H. nana; [6]): 23.3%; Cure rate (%) (H. nana; [7]): 23.3%
14 | CCC(=O)OCCc1ccccc1 [phenethyl proprionate] | Low | No | Yes | –
15 | CCCCCCCCCCCCOS(=O)(=O)[O-].[Na+] [sodium lauryl sulfate] | Low | No | No | –
16 | CCC(C)(O)CCCC(C)C (stereo not shown) [tetrahydrolinalool] | High | Yes | Yes | –
17 | COc1cc(C=O)ccc1O [vanillin] | – | – | No | –
18 | CC1=CCC2CC1C2(C)C (stereo not drawn) [α-pinene] | Low | No | No | Cure rate (%) (H. nana; [6]): 25.0%; Cure rate (%) (H. nana; [7]): 25.0%
